Earlier results in US20140275257A1, “N-ACETYL CYSTEINE COMPOSITIONS IN THE TREATMENT OF SYSTEMIC LUPUS ERYTHEMATOSUS” (Foundation for the State University of New York, priority 2013, published 2014).

How the values were obtained:
[1] = effects counter to those reported for NAC; Samstrand et al (1999); cited from earlier work
[2] = test system: MRL/lpr lupus mouse model; details: cited from earlier work
[3] = test system: CD4+/CD25+/FoxP3+ T cells; details: Lai et al. (2010); cited from earlier work
human SLE patients = details: patients resistant or intolerant to conventional medications; Fernandez et al. (2006); cited from earlier work

SMILES: CC(=O)N[C@@H](CSSC[C@H](NC(C)=O)C(=O)O)C(=O)O [oxidized form of NAC]
- bioactive at doses less than NAC [1]: 10-100 fold

SMILES: CO[C@H]1C[C@@H]2CC[C@@H](C)[C@@](O)(O2)C(=O)C(=O)N2CCCC[C@H]2C(=O)O[C@H]([C@H](C)C[C@@H]2CC[C@@H](O)[C@H](OC)C2)CC(=O)[C@H](C)/C=C(\C)[C@@H](O)[C@@H](OC)C(=O)[C@H](C)C[C@H](C)/C=C/C=C/C=C/1C [rapamycin]
- survival of lupusprone MRL/lpr lupus mouse model ([2]; Warner et al. (1994)): prolonged survival
- disease activity in murine lupus ([2]; blockade of mTOR): improves disease activity
- CD4+/CD25+/FoxP3+ T cells in patients with SLE [3]: expanded
- disease activity in human SLE patients (human SLE patients): improves disease activity
